Experimental data taken from patent publication US6124334A, “Hetero-aromatic ring substituted phenyloxazolidinone antimicrobials” (Pharmacia & Upjohn Company, priority 1998, dated 2000).
≈ marks a conversion by molar mass, not a printed value. Where “and” joins values, the source holds several entries; their conditions need not be identical. Equal values may be shown once.

What was measured:
[1] = test system: S. aureus, UC ®9213; experiment: In vivo Murine Assay procedure, ED50 (survival of infected mice); set-up: species or system Staphylococcus aureus; female mice
Procedure: Antimicrobial activity was tested in vivo using the Murine Assay procedure. Groups of female mice (six mice of 18-20 grams each) were injected intraperitoneally with bacteria which were thawed just prior to use and suspended in brain heart infusion with 4% brewers yeast UC9213 (Staphylococcus aureus) or brain heart infusion (Streptococcus species). Antibiotic treatment at six dose levels per drug was administered one hour and five hours after infection by either oral intubation or subcutaneous ("subcut.") routes. Survival was observed daily for six days. ED50 values based on mortality ratios were calculated using probit analysis. The subject compounds were compared against a well-known antimicrobial (Vancomycin) as a control.

[2] = test system: S. pneumoniae, UC ®9912; experiment: In vitro MIC by agar dilution, S. pneumoniae; format: cell-based; details: Streptococcus pneumoniae, UC9912, read-out: In vitro Activities: Minimum Inhibitory Concentrations, S. pneumoniae, UC 9912
Text: The oxazolidinone antibacterial agents of this invention have useful activity against a variety of organisms. The in vitro activity of compounds of this invention can be assessed by standard testing procedures such as the determination of minimum inhibitory concentration (MIC) by agar dilution as desribed in "Methods for Dilution Antimicrobial Susceptibility Tests for Bacteria That Grow Aerobically" (MFT) published January 1983 by the National Committee for Clinical Laboratory Standards, 771 East Lancaster Avenue, Villanova, Pa. 19084, USA. The activity of selected compounds of this invention against Staphylococcus aureus and Streptococcus pneumoniae are shown in Table 1.

CN[C@H](CC(C)C)C(=O)N[C@H]1C(=O)N[C@@H](CC(N)=O)C(=O)N[C@H]2C(=O)N[C@H]3C(=O)N[C@H](C(=O)N[C@H](C(=O)O)c4cc(O)cc(O)c4-c4cc3ccc4O)[C@H](O)c3ccc(c(Cl)c3)Oc3cc2cc(c3O[C@@H]2O[C@H](CO)[C@@H](O)[C@H](O)[C@H]2O[C@H]2C[C@](C)(N)[C@H](O)[C@H](C)O2)Oc2ccc(cc2Cl)[C@H]1O [Vancomycin]
ED50 ([1]; Staphylococcus aureus, UC9213, 144 h, read-out: Control, ED50): 2.2 mg/kg
Control, ED50 ([1]; vancomycin control run beside the Example of the same line, mice infected i.p. with S. aureus UC 9213, treatment 1 h and 5 h after infection, oral or subcutaneous, 8640 min): 2.4 mg/kg and 2.0 mg/kg and 1.2 mg/kg
MIC [2]: 0.5 µg/mL (≈ 0.345 µM)
